Experimental data from ChEMBL document CHEMBL1128555, “Derivatives of 5-[[1-(4'-carboxybenzyl)imidazolyl]methylidene]hydantoins as orally active angiotensin II receptor antagonists” (J Med Chem, 1995).
Active and inactive are the calls of the source. The calls are words filed in the database; no cut-off is given here.

What was measured:
[1] = molecular target: T1, Angiotensin II receptor (AT-1) type-1 (Rattus norvegicus, UniProt P29089+P25095); assay: Binding affinity expressed as IC50 to the Angiotensin II receptor, type 1, from rat liver membrane
T1 sequence (P29089 whole entry): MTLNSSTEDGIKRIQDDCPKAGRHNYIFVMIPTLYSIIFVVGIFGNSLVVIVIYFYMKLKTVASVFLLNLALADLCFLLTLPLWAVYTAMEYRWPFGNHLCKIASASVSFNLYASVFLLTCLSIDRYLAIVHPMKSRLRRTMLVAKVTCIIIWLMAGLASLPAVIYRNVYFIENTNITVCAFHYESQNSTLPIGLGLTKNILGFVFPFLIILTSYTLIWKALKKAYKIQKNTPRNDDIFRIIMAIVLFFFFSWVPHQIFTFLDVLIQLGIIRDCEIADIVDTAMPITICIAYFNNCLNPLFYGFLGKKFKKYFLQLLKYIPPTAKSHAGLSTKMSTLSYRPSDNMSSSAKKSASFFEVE
T1 sequence (P25095 whole entry): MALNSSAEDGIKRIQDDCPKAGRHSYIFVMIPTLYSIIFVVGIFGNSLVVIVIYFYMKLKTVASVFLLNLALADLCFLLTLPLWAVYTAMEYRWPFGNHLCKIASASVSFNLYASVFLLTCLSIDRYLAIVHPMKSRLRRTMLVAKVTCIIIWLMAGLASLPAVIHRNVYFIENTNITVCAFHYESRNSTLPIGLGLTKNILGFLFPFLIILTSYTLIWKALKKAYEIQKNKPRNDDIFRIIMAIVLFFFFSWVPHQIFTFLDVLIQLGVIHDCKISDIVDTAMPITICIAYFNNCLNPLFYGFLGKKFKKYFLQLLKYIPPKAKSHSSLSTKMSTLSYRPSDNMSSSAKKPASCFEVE

[2] = molecular target: Angiotensin II receptor (AT-1) type-1 (Rattus norvegicus) (UniProt P29089+P25095); assay: Antihypertensive activity in renal hypertensive rats (RHR) at 30 mg/Kg dose after oral administration; type: functional, organism-based
[3] = molecular target: Angiotensin II receptor type-1 (Oryctolagus cuniculus) (UniProt P34976); assay: Inhibition of angiotensin II induced contraction in rabbit aortic ring, activity is expressed as IC50
Chain of Angiotensin II receptor type-1 (Oryctolagus cuniculus) (P34976 whole entry, looked up): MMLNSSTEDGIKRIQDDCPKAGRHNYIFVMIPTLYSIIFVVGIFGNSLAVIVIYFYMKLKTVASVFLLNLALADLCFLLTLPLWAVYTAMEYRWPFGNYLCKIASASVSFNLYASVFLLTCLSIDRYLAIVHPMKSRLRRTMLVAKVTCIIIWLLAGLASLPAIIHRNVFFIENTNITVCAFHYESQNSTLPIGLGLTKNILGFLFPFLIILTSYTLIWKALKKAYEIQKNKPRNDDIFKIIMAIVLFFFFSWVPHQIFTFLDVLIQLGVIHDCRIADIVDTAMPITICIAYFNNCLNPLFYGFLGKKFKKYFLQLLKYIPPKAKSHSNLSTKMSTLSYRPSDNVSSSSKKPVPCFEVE

Row | SMILES | IC50 [1] [nM] | other results
1 | CCCCc1ncc(/C=C2/C(=O)N(CCCC)C(=O)N2Cc2nn[nH]n2)n1Cc1ccc(C(=O)OC)cc1 | 41.7 | 
2 | CCCCc1ncc(/C=C2/C(=O)N(CCCC)C(=O)N2Cc2cc(C)on2)n1Cc1ccc(C(=O)OC)cc1 | 8.5 | 
3 | CCCCc1ncc(/C=C2/C(=O)NC(=O)N2Cc2ccc(Cl)cc2)n1Cc1ccc(C(=O)O)cc1 | 3 | Maximum blood pressure change [2]: -17%; IC50 [3]: 28 nM
4 | CCCCc1ncc(/C=C2/C(=O)N(CCC)C(=O)N2Cc2csc(C)n2)n1Cc1ccc(C(=O)OC)cc1 | 9 | 
5 | CCCCc1ncc(/C=C2/C(=O)NC(=O)N2CCC(C)C)n1Cc1ccc(C(=O)O)cc1 | 6.6 | IC50 [3]: 32 nM
6 | CCCCc1ncc(/C=C2/C(=O)N(CCCC(F)(F)F)C(=O)N2Cc2csc(C)n2)n1Cc1ccc(C(=O)OC)cc1 | 70 | 
7 | CCCCc1ncc(/C=C2/C(=O)N(CCCC)C(=O)N2Cc2ccc(C)s2)n1Cc1ccc(C(=O)O)cc1 | 0.6 | Maximum blood pressure change [2]: -22%; IC50 [3]: 5.3 nM
8 | CCCCc1ncc(/C=C2/C(=O)N(CCCC)C(=O)N2Cc2ccccn2)n1Cc1ccc(C(=O)OC)cc1 | 5.8 | Maximum blood pressure change [2]: -20%; IC50 [3]: 490 nM
9 | CCCCc1ncc(/C=C2/C(=O)N(CCCC)C(=O)N2Cc2ccc(C(=O)OC)s2)n1Cc1ccc(C(=O)OC)cc1 | 4.2 | 
10 | CCCCc1ncc(/C=C2\C(=O)NC(=O)N2Cc2ccccc2)n1Cc1ccc(C(=O)O)cc1 | 3.4 | IC50 [3]: > 100 nM
11 | CCCCc1ncc(/C=C2/C(=O)NC(=O)N2CCCC)n1Cc1ccc(-c2ccccc2-c2nn[nH]n2)cc1 | 1.4 | Maximum blood pressure change [2]: 0%; IC50 [3]: 40 nM
12 | CCCCc1ncc(/C=C2\C(=O)N(CCCC)C(=O)N2CCCC)n1Cc1ccc(C(=O)O)cc1 | 0.5 | 
13 | CCCCc1ncc(/C=C2/C(=O)N(CCCC)C(=O)N2Cc2ccc(OC)cc2)n1Cc1ccc(C(=O)OC)cc1 | 9.8 | 
14 | CCCCc1ncc(/C=C2\C(=O)NC(=O)N2CCCC)n1Cc1ccc(-c2nn[nH]n2)cc1 | 2.5 | 
15 | CCCCc1ncc(/C=C2/C(=O)N(CCCC)C(=O)N2Cc2ccc(Cl)cc2)n1Cc1ccc(C(=O)OC)cc1 | 17.6 | Maximum blood pressure change [2]: -15%; IC50 [3]: 500 nM
16 | CCCCc1ncc(/C=C2/C(=O)NC(=O)N2Cc2ccccc2)n1Cc1ccc(C(=O)O)cc1 | 4 | IC50 [3]: 35 nM
17 | CCCCc1ncc(/C=C2/C(=O)N(C)C(=O)N2Cc2csc(C)n2)n1Cc1ccc(C(=O)OC)cc1 | 16.6 | 
18 | CCCCc1ncc(/C=C2/C(=O)N(CCCC)C(=O)N2Cc2ccccc2)n1Cc1ccc(C(=O)OC)cc1 | 12.4 | 
19 | CCCCc1ncc(/C=C2/C(=O)N(CCCC)C(=O)N2CC2CCCCC2)n1Cc1ccc(C(=O)OC)cc1 | 3.3 | 
20 | CCCCc1ncc(/C=C2/C(=O)N(COC)C(=O)N2Cc2csc(C)n2)n1Cc1ccc(C(=O)OC)cc1 | 47.8 | 
21 | CCCCc1ncc(/C=C2/C(=O)N(CCCC)C(=O)N2CCc2cccs2)n1Cc1ccc(C(=O)OC)cc1 | 14.5 | 

Row | SMILES | IC50 [1] [nM] | other results
22 | CCCCc1ncc(/C=C2\C(=O)N(CCCC)C(=O)N2Cc2csc(C)n2)n1Cc1ccc(C(=O)O)cc1 | 1.7 | 
23 | CCCCc1ncc(/C=C2/C(=O)NC(=O)N2CCCC)n1Cc1ccc(NS(=O)(=O)C(F)(F)F)cc1 | 3.3 | Maximum blood pressure change [2]: -11%; IC50 [3]: 120 nM
24 | CCCCCN1C(=O)N(CCCC)C(=O)/C1=C/c1cnc(CCCC)n1Cc1ccc(C(=O)OC)cc1 | 6.1 | 
25 | CCCCc1ncc(/C=C2/C(=O)N(CCCO)C(=O)N2Cc2csc(C)n2)n1Cc1ccc(C(=O)OC)cc1 | 47.9 | 
26 | CCCCc1ncc(/C=C2/C(=O)N(CCCC)C(=O)N2CCCC)n1Cc1ccc(-c2ccccc2C(=O)OC)cc1 | 29.6 | 
27 | CCCCc1ncc(/C=C2/C(=O)N(CCCC)C(=O)N2Cc2csc(N)n2)n1Cc1ccc(C(=O)O)cc1 | 0.6 | Max [2]: inactive; IC50 [3]: 2.9 nM
28 | CCCCc1ncc(/C=C2/C(=O)N(CCCC)C(=O)N2Cc2ccc(C(F)(F)F)cc2)n1Cc1ccc(C(=O)OC)cc1 | 159 | 
29 | CCCCc1ncc(/C=C2/C(=O)N(CCCC)C(=O)N2CCc2ccsc2)n1Cc1ccc(C(=O)OC)cc1 | 14.6 | 
30 | CCCCc1ncc(/C=C2/C(=O)N(CCCC)C(=O)N2Cc2ccc(O)c(O)c2)n1Cc1ccc(C(=O)OC)cc1 | 4.9 | 
31 | CCCCCCN1C(=O)N(CCCC)C(=O)/C1=C/c1cnc(CCCC)n1Cc1ccc(C(=O)OC)cc1 | 40.2 | 
32 | CCCCc1ncc(/C=C2/C(=O)N(CCCC)C(=O)N2Cc2cccc[n+]2[O-])n1Cc1ccc(C(=O)OC)cc1 | 260 | 
33 | CCCCc1ncc(/C=C2/C(=O)N(CCCC)C(=O)N2CCc2ccccc2)n1Cc1ccc(C(=O)OC)cc1 | 31 | 
34 | CCCCc1ncc(/C=C2/C(=O)N(CCSC)C(=O)N2Cc2csc(C)n2)n1Cc1ccc(C(=O)OC)cc1 | 9.6 | 
35 | CCCCc1ncc(/C=C2/C(=O)N(CCCC)C(=O)N2Cc2c(C)noc2C)n1Cc1ccc(C(=O)OC)cc1 | 198 | 
36 | CCCCc1ncc(/C=C2\C(=O)N(CCCC)C(=O)N2Cc2csc(N)n2)n1Cc1ccc(C(=O)O)cc1 | 0.5 | 
37 | CCCCc1ncc(/C=C2\C(=O)NC(=O)N2CCC(C)C)n1Cc1ccc(C(=O)O)cc1 | 4.9 | IC50 [3]: 74 nM
38 | CCCCc1ncc(/C=C2/C(=O)N(CCCC)C(=O)N2Cc2ccc(Br)s2)n1Cc1ccc(C(=O)OC)cc1 | 17.8 | 
39 | CCCCc1ncc(/C=C2/C(=O)N(CCCC)C(=O)N2Cc2ccc(C(=O)OC)cc2)n1Cc1ccc(C(=O)OC)cc1 | 14.3 | 
40 | CCCCc1ncc(/C=C2\C(=O)N(CCCC)C(=O)N2Cc2cccs2)n1Cc1ccc(C(=O)O)cc1 | 0.6 | 
41 | CCCCc1ncc(/C=C2/C(=O)N(CCCC)C(=O)N2Cc2cc(Br)cs2)n1Cc1ccc(C(=O)OC)cc1 | 21.9 | 
42 | CCCCc1ncc(/C=C2/C(=O)N(CCCC)C(=O)N2Cc2cccc(C)c2)n1Cc1ccc(C(=O)OC)cc1 | 18.5 | 

Row | SMILES | IC50 [1] [nM] | other results
43 | CCCCc1ncc(/C=C2/C(=O)N(CCCC)C(=O)N2Cc2csc(Br)c2)n1Cc1ccc(C(=O)OC)cc1 | 25.4 | 
44 | CCCCc1ncc(/C=C2/C(=O)N(CC)C(=O)N2Cc2csc(C)n2)n1Cc1ccc(C(=O)OC)cc1 | 11.1 | 
45 | CCCCc1ncc(/C=C2/C(=O)N(CCCC)C(=O)N2Cc2ccc(C)cc2)n1Cc1ccc(C(=O)OC)cc1 | 34.6 | 
46 | CCCCc1ncc(/C=C2/C(=O)N(CCCC)C(=O)N2Cc2c[nH]cn2)n1Cc1ccc(C(=O)OC)cc1 | 54.5 | 
47 | CCCCc1ncc(/C=C2/C(=O)N(CO)C(=O)N2Cc2csc(C)n2)n1Cc1ccc(C(=O)OC)cc1 | 35.7 | 
48 | CCCCc1ncc(/C=C2\C(=O)NC(=O)N2CCCC)n1Cc1ccc(-c2ccccc2C(=O)OC)cc1 | 9.9 | 
49 | CCCCc1ncc(/C=C2/C(=O)N(CCCC)C(=O)N2C=C(C)C)n1Cc1ccc(C(=O)OC)cc1 | 11.1 | 
50 | CCCCc1ncc(/C=C2/C(=O)N(CCCC)C(=O)N2Cc2ccc3ccccc3c2)n1Cc1ccc(C(=O)OC)cc1 | 104 | 
51 | CCCCc1ncc(/C=C2/C(=O)N(CCCC)C(=O)N2Cc2csc(C)n2)n1Cc1ccc(C2(C(=O)O)CCCC2)cc1 | 1.9 | Maximum blood pressure change [2]: -16%
52 | CCCCc1ncc(/C=C2/C(=O)N(CCCC)C(=O)N2Cc2cccc(Cl)c2)n1Cc1ccc(C(=O)OC)cc1 | 117 | 
53 | CCCCc1ncc(/C=C2/C(=O)N(CCCC)C(=O)N2Cc2ccc([N+](=O)[O-])cc2)n1Cc1ccc(C(=O)OC)cc1 | 16.9 | 
54 | CCCCc1ncc(/C=C2\C(=O)NC(=O)N2CCCC)n1Cc1ccc(NS(=O)(=O)C(F)(F)F)cc1 | 4.2 | 
55 | CCCCc1ncc(/C=C2/C(=O)N(CCCC)C(=O)N2Cc2ccsc2)n1Cc1ccc(C(=O)OC)cc1 | 4.8 | Maximum blood pressure change [2]: -36%
56 | CCCCc1ncc(/C=C2/C(=O)N(CCCC)C(=O)N2CCCC(F)(F)F)n1Cc1ccc(C(=O)OC)cc1 | 6.4 | 
57 | CCCCc1ncc(/C=C2/C(=O)N(CCCC)C(=O)N2Cc2sccc2C)n1Cc1ccc(C(=O)OC)cc1 | 23.9 | 
58 | CCCCc1ncc(/C=C2/C(=O)NC(=O)N2CCCC)n1Cc1ccc(-c2ccccc2C(=O)OC)cc1 | 15.9 | 
59 | CCCCc1ncc(/C=C2/C(=O)N(CCCC)C(=O)N2Cc2ccc(C#N)cc2)n1Cc1ccc(C(=O)OC)cc1 | 11.1 | 
60 | CCCCc1ncc(/C=C2/C(=O)N(CCCC)C(=O)N2Cc2csc(C)n2)n1Cc1ccc(C2(C(=O)OC)CCCC2)cc1 | 8 | 
61 | CCCCc1ncc(/C=C2/C(=O)N(CCCC)C(=O)N2Cc2c[nH]c(C)n2)n1Cc1ccc(C(=O)OC)cc1 | 245 | 
62 | CCCCc1ncc(/C=C2/C(=O)N(CCCC)C(=O)N2C(c2ccccc2)c2ccccc2)n1Cc1ccc(C(=O)OC)cc1 | 884 | 
63 | CCCCc1ncc(/C=C2\C(=O)NC(=O)N2CCCC)n1Cc1ccc(-c2ccccc2-c2nn[nH]n2)cc1 | 2.7 | 
